Values after ≈ are worked out from the molar mass of the structure shown.
Experiments:
RAW264.7 [1] = experiment: Antiinflammatory activity in mouse RAW264.7 cells assessed as inhibition of LPS induced iNOS-dependent nitric oxide production at 1.25 ug/ml after 24 hrs by Griess assay relative to control; assay type: functional; details: RAW264.7, 24 h
RAW264.7 [2] = experiment: Antiinflammatory activity in mouse RAW264.7 cells assessed as inhibition of LPS induced iNOS-dependent nitric oxide production at 2.5 ug/ml after 24 hrs by Griess assay relative to control; assay type: functional; details: RAW264.7, 24 h
RAW264.7 [3] = experiment: Antiinflammatory activity in mouse RAW264.7 cells assessed as inhibition of LPS induced iNOS-dependent nitric oxide production at 5 ug/ml after 24 hrs by Griess assay relative to control; assay type: functional; details: RAW264.7, 24 h
RAW264.7 [4] = experiment: Antiinflammatory activity in mouse RAW264.7 cells assessed as inhibition of LPS induced iNOS-dependent nitric oxide production at 10 ug/ml after 24 hrs by Griess assay relative to control; assay type: functional; details: RAW264.7, 24 h
RAW264.7 [5] = experiment: Antiinflammatory activity in mouse RAW264.7 cells assessed as inhibition of LPS induced iNOS-dependent nitric oxide production after 24 hrs by Griess assay; assay type: functional, cell-based; details: RAW264.7, 24 h
[6] = Cytotoxicity against LPS-stimulated mouse RAW264.7 cells assessed as cell viability at 1.25 ug/ml after 24 hrs by MTT assay relative to control; assay type: cell-based; details: LPS-stimulated RAW264.7 cells, read-out: Activity
[7] = Cytotoxicity against LPS-stimulated mouse RAW264.7 cells assessed as cell viability at 2.5 ug/ml after 24 hrs by MTT assay relative to control; assay type: cell-based; details: LPS-stimulated RAW264.7 cells, read-out: Activity
[8] = Cytotoxicity against LPS-stimulated mouse RAW264.7 cells assessed as cell viability at 5 ug/ml after 24 hrs by MTT assay relative to control; assay type: cell-based; details: LPS-stimulated RAW264.7 cells, read-out: Activity
[9] = Cytotoxicity against LPS-stimulated mouse RAW264.7 cells assessed as cell viability at 10 ug/ml after 24 hrs by MTT assay relative to control; assay type: cell-based; details: LPS-stimulated RAW264.7 cells, read-out: Activity

IC50 (RAW264.7 [5]) [µg/mL] | Compound | inhibition at 1.25 µg/mL (RAW264.7 [1]) [%] | inhibition at 2.5 µg/mL (RAW264.7 [2]) [%] | inhibition at 5 µg/mL (RAW264.7 [3]) [%] | inhibition at 10 µg/mL (RAW264.7 [4]) [%] | viability at 24 h, 1.25 ug/ml [6] [%] | viability at 24 h, 2.5 ug/ml [7] [%] | viability at 24 h, 5 ug/ml [8] [%] | viability at 24 h, 10 ug/ml [9] [%]
4.83 (≈ 17 µM) | COc1cccc(/C=C/C(=O)c2cccc(O)c2)c1OC | 1.8 | 3 | 52.4 | 55.1 | 99.6 | 70.8 | 57.8 | 32.8
> 10 | COc1ccc(C(=O)CCc2ccc3c(c2)OCO3)c(O)c1 | 5.1 | 10.6 | 14.1 | 25.9 | 99.8 | 96.8 | 96.2 | 94.4
4.35 (≈ 14.5 µM) | COc1ccc(CCC(=O)c2ccc(OC)c(OC)c2)cc1 | 14.1 | 32.5 | 54.4 | 57.2 | 99.1 | 98.6 | 95.1 | 90.6
3.64 (≈ 12.7 µM) | COc1cc(CCCc2ccc3c(c2)OCO3)ccc1O | 42.4 | 46.8 | 52.7 | 78.3 | 98.5 | 96.2 | 93.3 | 58.2
9.78 (≈ 35.9 µM) | COc1cc(CCC(=O)c2cccc(O)c2)ccc1O | 5.6 | 19.8 | 23.2 | 50.9 | 100 | 98.9 | 96.1 | 91
9.44 (≈ 31.4 µM) | COc1cc(C(=O)CCc2ccc3c(c2)OCO3)ccc1O | 4.2 | 5.5 | 32.2 | 51.6 | 95.3 | 94.5 | 92 | 89
8.69 (≈ 30.3 µM) | COc1ccc(CCCc2ccc(OC)c(OC)c2)cc1 | 12.9 | 15.1 | 28.6 | 55.4 | 100 | 100 | 96.9 | 95.1
9.42 (≈ 33.1 µM) | COc1ccc(/C=C/C(=O)c2cccc(O)c2)c(OC)c1 | 1.6 | 2.3 | 9 | 53.9 | 97.7 | 74 | 63 | 61.6
5.05 (≈ 16.1 µM) | COc1ccc(C(=O)/C=C/c2ccc(OC)c(OC)c2)c(O)c1 | 9.1 | 3 | 49.6 | 77.3 | 99.7 | 92.6 | 73.9 | 70
> 10 | COc1ccc(C(=O)/C=C/c2cc(OC)ccc2OC)c(O)c1 | 7.4 | 0.7 | 6.1 | 26.6 | 95.4 | 93.3 | 71.1 | 66.5
6.3 (≈ 21.1 µM) | COc1cc(C(=O)/C=C/c2ccc3c(c2)OCO3)ccc1O | 5.3 | 0.6 | 49.1 | 51.8 | 100 | 85.3 | 81.1 | 72.7
9.81 (≈ 34.3 µM) | COc1ccc(CCC(=O)c2ccc(O)c(OC)c2)cc1 | 2.9 | 12.2 | 26.1 | 50.7 | 90 | 92 | 89.8 | 86.5
> 10 | COc1ccc(C(=O)CCc2cc(OC)ccc2OC)c(O)c1 | 6.6 | 8.2 | 11.9 | 14 | 96.4 | 96.2 | 91.1 | 92.4
8.79 (≈ 29.1 µM) | COc1ccc(CCCc2cccc(OC)c2OC)c(O)c1 | 21.5 | 30.3 | 30.7 | 54.4 | 99.1 | 99 | 95.2 | 63
> 10 | COc1ccc(CCCc2cccc(O)c2)cc1OC | 13.9 | 5.4 | 15.4 | 44.7 | 99.9 | 98.5 | 94.8 | 78.8
> 10 | COc1ccc(C(=O)/C=C/c2ccc(OC)cc2OC)c(O)c1 | 3.4 | 7.4 | 12.2 | 2.8 | 98.7 | 90.3 | 87.3 | 68
2.42 (≈ 8.51 µM) | COc1ccc(OC)c(/C=C/C(=O)c2cccc(O)c2)c1 | 2.8 | 52.3 | 52.4 | 77.1 | 99 | 72.4 | 67.3 | 62.5
5.18 (≈ 20.2 µM) | Oc1ccc(CCCc2ccc3c(c2)OCO3)cc1 | 33 | 37.7 | 48.9 | 69.4 | 99.2 | 95.7 | 94.5 | 92.6
4.88 (≈ 17.2 µM) | COc1ccc(/C=C/C(=O)c2ccc(O)c(OC)c2)cc1 | 7.7 | 3.1 | 51.7 | 53.9 | 96.2 | 96 | 82.9 | 62.3
> 10 | COc1ccc(C(=O)/C=C/c2ccc(OC)c(OC)c2OC)c(O)c1 | 9.1 | 9.7 | 4.1 | 0.1 | 98.5 | 96.6 | 72.5 | 75.3
7.72 (≈ 31.9 µM) | COc1ccc(CCCc2cccc(O)c2)cc1 | 22.2 | 20.5 | 40.1 | 55.9 | 99.9 | 99.2 | 94.1 | 76.2
> 10 | COc1ccc(OC)c(CCC(=O)c2cccc(O)c2)c1 | 15.7 | 18.4 | 22.3 | 38.5 | 98.6 | 96.8 | 97.5 | 93.6
9.42 (≈ 32.9 µM) | COc1ccc(CCC(=O)c2cccc(O)c2)c(OC)c1 | 7.9 | 17.1 | 25.4 | 52.3 | 92.1 | 88.5 | 88.8 | 74.8
> 10 | COc1ccc(CCC(=O)c2ccc(OC)cc2O)cc1 | 7.8 | 10.5 | 14.5 | 25.9 | 95.1 | 94.5 | 92.3 | 88
6.58 (≈ 23 µM) | COc1ccc(CCC(=O)c2cccc(O)c2)cc1OC | 5.4 | 18.6 | 46.2 | 55.8 | 101 | 98.9 | 98 | 97.9
2.43 (≈ 8.15 µM) | COc1ccc(/C=C/C(=O)c2ccc(OC)c(OC)c2)cc1 | 5.1 | 52 | 52.1 | 85.5 | 97.2 | 93.1 | 78.9 | 73.9
7.13 (≈ 27.6 µM) | COc1cc(CCCc2cccc(O)c2)ccc1O | 10.9 | 15.9 | 18.1 | 80.4 | 100 | 99.5 | 97.7 | 76.1
